Holding throughout (assay type): in vivo
The subject of experiment [1] is trained panelists. In words: time-intensity analysis of cooling, lozenge application. The note with it: 4-minute window. Here is the method: In order to evaluate the potential use of menthol glycinates as […] different food, beverage and oral hygiene products, select compounds were incorporated in different application systems. A beverage model system, a lozenge and a mouthwash application were created, and time-intensity analysis was performed using trained discrimination analysis panelists. Time-Intensity (TI) is a temporal sensory method. During TI evaluations, assessors are asked to score the intensity of perception of a single attribute over consumption of the product. Compared to single point measurements, TI analysis can characterize the onset, decline and rates thereof, of particular sensory characteristics. This analysis may reveal rich information regarding the intensity of an attribute over the time domain and identify temporal perceptual differences among samples that can greatly impact the overall profile of a product. For each sample evaluation, a temporal curve is generated, based on duplication. The temporal curves for each panelist are combined to generate a combined curve for each product that is evaluated. The following distinct parameters were calculated: Imax: peak intensity or maximum observed intensity on the whole curve; […]: time point where the reaction to the stimulus is first perceived on the curve; Tmax: time position of the peak intensity on the curve; Tplateau: protraction of maximum intensity or duration of maximum intensity; Text: time point of extinction of the perception of the stimulus, defined as the position in time after the peak intensity where the measured intensity disappears (or the end of evaluation window); Iext: intensity at time of extinction or end of evaluation; R increase: slope or rate of intensity increase between […] and Tmax; R decrease: slope or rate of intensity decrease between Tmax and Text; and Area: the total area under the time-intensity curve. The formula detailed in Table 4 was employed to create the lozenge application to evaluate menthol glycinates of interest using time-intensity analysis. [table] For time-intensity (T-I) evaluation of the cooling intensity of lozenges, 9 panelists were recruited (3 male, 6 female). Panelists were trained in basic taste descriptive analysis. A sweetness reference series (intensity range 2-12) was provided to be used as cross-modality reference to aid in scaling the intensity of the cool attribute present in the lozenge samples. Panelists evaluated samples in duplicates and all samples were presented blinded and in a randomized order using a 3-digit code. Panelists were instructed to provide cooling intensity at predetermined time points throughout an evaluation window of 4 minutes. […] Evaluations were performed with at least 4 hours between them to ensure no carry over. Data analysis for generation of T-I statistics and ANOVA analysis to determine significant difference among samples was performed using R STUDIO.

Experiment [2] in a line: organoleptic evaluation in ethanol, propylene glycol and water. The note with it: for organoleptic properties, EtOH / organoleptic properties, PG / organoleptic properties (entry names no solvent): 100 ppm; for organoleptic properties, EtOH: ethanol cut in aqueous solution; for organoleptic properties, PG: propylene glycol cut in aqueous solution; for organoleptic properties (entry names no solvent): entry without solvent suffix. The protocol: Stock solutions for each solution was prepared as described below to afinal concentration of 100 ppm.
c. Mix well to achieve final concentration of 100 ppm.
a. Prepare a stock solution of 2.5% solution in PG by adding 25 mg of menthol analog in 1 gram of PG (mix well).
Organoleptic properties by compound are listed below for menthol derivatives in ethanol, propylene glycol, and water: […]

Experiment [3] relates to trained panelists. Briefly: time-intensity analysis of cooling, mouthwash application. To be noted: for Iext (cooling intensity at end of evaluation): 15 minutes after expectoration. The protocol:
In order to evaluate the potential use of menthol glycinates as […] different food, beverage and oral hygiene products, select compounds were incorporated in different application systems. A beverage model system, a lozenge and a mouthwash application were created, and time-intensity analysis was performed using trained discrimination analysis panelists. Time-Intensity (TI) is a temporal sensory method. During TI evaluations, assessors are asked to score the intensity of perception of a single attribute over consumption of the product. Compared to single point measurements, TI analysis can characterize the onset, decline and rates thereof, of particular sensory characteristics. This analysis may reveal rich information regarding the intensity of an attribute over the time domain and identify temporal perceptual differences among samples that can greatly impact the overall profile of a product. For each sample evaluation, a temporal curve is generated, based on duplication. The temporal curves for each panelist are combined to generate a combined curve for each product that is evaluated. The following distinct parameters were calculated: Imax: peak intensity or maximum observed intensity on the whole curve; […]: time point where the reaction to the stimulus is first perceived on the curve; Tmax: time position of the peak intensity on the curve; Tplateau: protraction of maximum intensity or duration of maximum intensity; Text: time point of extinction of the perception of the stimulus, defined as the position in time after the peak intensity where the measured intensity disappears (or the end of evaluation window); Iext: intensity at time of extinction or end of evaluation; R increase: slope or rate of intensity increase between […] and Tmax; R decrease: slope or rate of intensity decrease between Tmax and Text; and Area: the total area under the time-intensity curve. The formula shown in Table 8 was employed to create a mouthwash product to evaluate […] of interest using time-Intensity analysis. [table] The following test compounds were evaluated: menthol, XI-I-60, RK-2-10, XI-I-65, DK-1-50, and XI-2-73. For time-intensity (T-I) evaluation of the cooling attributes of mouthwash products, 8 panelists were recruited (2 male, 6 female). Panelists were trained in basic taste descriptive analysis. A sweetness reference series (intensity range 2-12) was provided to be used as cross-modality reference to aid in scaling the intensity of the cooling attribute present in the mouthwash samples. Panelists evaluated samples in duplicates and all sample were presented blinded and in a randomized order using a 3-digit code. Panelist evaluated 15 ml of mouthwash at a time and were instructed to rinse for 30 seconds and expectorate. Panelists were instructed to provide cooling intensities before and after expectoration. For the time before expectoration, evaluation started upon introducing the sample and every 10 seconds thereafter. After expectoration, the evaluation continued for 15 minutes and panelists provided cooling intensity ratings at predetermined times. Due to the unique nature of this product and the interest in prolonging the cooling attribute long after consumption, an additional parameter led was evaluated among samples via ANOVA. This parameter is the cooling intensity at time of extinction or in our case the end of evaluation. Data analysis for generation of T-I statistics and ANOVA analysis to determine significant difference among samples was performed using R STUDIO.

Where [4] appears, read: after expectoration for 15 minutes (Table 9b).
Setting [5] is: rinse phase 30 seconds (Table 9a).

“Also recorded” adds a separate entry of the source. Marks after values point to notes of the source that are not given here.

Consider `CC1CCC(C(C)C)C(O)C1` (centres unmarked) [Menthol, menthol], for which the “Imax (peak cooling intensity)” value with trained panelists [1] (0.05 g test compound per 100 g, 2 g sample, 9 panelists) is 11.53^bc^. In addition, in the experiment with trained panelists [1], the “AUC (total area under time-intensity curve)” value is 2064.83^b, the “RDec (rate of intensity decrease)” value was 0.056^b, the “RInc (rate of intensity increase)” value was 0.053^b and the “Tmax (time of peak intensity)” value was 180.00^b. Besides, the “Tstart (time cooling first perceived)” value in the experiment on trained panelists [1] was 5.00^b. Moreover, the “organoleptic properties of menthol” value in experiment [2] (simple solutions of PG and water or ethanol) is “very strong, instantaneous cooling effect”. Further, in the experiment on trained panelists [3], the “Iext (cooling intensity at end of evaluation)” value (“Iext” for short) is recorded as 1^a. Also, in the experiment on trained panelists [3] (setting [4]), the AUC is given as 3608.38^a, the I max is reported as 12.01^a^, the Rdec was −0.03^a and the Rinc is on record as 0.00^a. Besides, in the experiment with trained panelists [3] (setting [4]), the Tmax is recorded as 33.53^a and the Tstart was 30.00^a. Further, in the experiment on trained panelists [3] (setting [5]), the AUC is 168.97^a, the Imax is on record as 12.56^a, the Rdec is −0.09^a and the Rinc is 0.21^a. For the same molecule, the Tstart in the experiment with trained panelists [3] (setting [5]) was 10.88^a.
In the case of “(1R,2S,5R)-2-Isopropyl-5-methylcyclohexyl 2-(isopropylamino)acetate [Product 7]”, in the experiment with trained panelists [1], the “RInc (rate of intensity increase)” value is given as 0.041^ab and the “Tmax (time of peak intensity)” value is on record as 210.00^a. Besides, in experiment [2] (listed as XI-1-60), the “organoleptic properties, EtOH” value is “cooling started at 20 seconds with slight alcohol; also recorded: burn, very intense cooling profile from 20 seconds” and the “organoleptic properties, PG” value is reported as “Up front cooling at 10 seconds with stronger cooling; also recorded: at 20 seconds, much more intense cooling than XI-”. Also, the “Iext” value in the experiment with trained panelists [3] is on record as 1.23^a. In addition, in the experiment on trained panelists [3] (setting [4]), the AUC is recorded as 4344.50^ac, the I max is given as 12.33^ab, the Rdec was −0.01^b and the Rinc was 0.00^a. Also, in the experiment with trained panelists [3] (setting [4]), the Tmax was 36.00^a and the Tstart is reported as 30.00^a. In the experiment on trained panelists [3] (setting [5]), the AUC is reported as 170.50^a, the Imax is reported as 12.43^a, the Rinc is 0.20^a and the Tstart is given as 11.00^a.
As to `CCCCN(CCCC)CC(=O)O[C@@H]1C[C@H](C)CC[C@H]1C(C)C` [Product 10, (1R,2S,5R)-2-Isopropyl-5-methylcyclohexyl 2-(dibutylamino)acetate], the “Tmax (time of peak intensity)” value with trained panelists [1] is given as 210.00^a. Further, in experiment [2] (listed as RK-2-10), the “organoleptic properties, EtOH” value is “delay onset mild cooling (post 20 seconds) with a; also recorded: slight tingling and sweetness that extended past 1”; the “organoleptic properties, PG” value is reported as “Very low intensity of cooling that slowly builds with; also recorded: a skin tingling effect. Could be a good candidate”; the “organoleptic properties (entry names no solvent)” value was “exhibited a delayed onset cooling and an upfront; also recorded: bitterness from PG”. The “Iext” value with trained panelists [3] was 0.9^a. Besides, in the experiment on trained panelists [3] (setting [4]), the AUC is on record as 4105.91^ac, the I max is reported as 12.65^ab, the Rdec is recorded as −0.01^b and the Tmax was 30.00^a. Besides, the Tstart with trained panelists [3] (setting [4]) is on record as 30.00^a. In the experiment with trained panelists [3] (setting [5]), the AUC is recorded as 182.05^a, the Imax was 12.82^a, the Rinc was 0.18^b and the Tstart is 10.91^a.
Consider `CC(C)[C@@H]1CC[C@@H](C)C[C@H]1OC(=O)CN(C)C(C)C` [Product 16, (1R,2S,5R)-2-Isopropyl-5-methylcyclohexyl 2-(isopropyl(methyl)amino)acetate], for which, in the experiment with trained panelists [1], the “Tmax (time of peak intensity)” value is 204.71^a and the “Tstart (time cooling first perceived)” value is reported as 7.85^ac. Moreover, in experiment [2] (listed as XI-1-50), the “organoleptic properties, EtOH” value was “initial alcohol cooling burn with late onset cooling; also recorded: at 20 seconds and deep cooling at 60 seconds”; the “organoleptic properties, PG” value was “initial bitterness from PG cooling at 30 seconds”; the “organoleptic properties (entry names no solvent)” value is given as “slight delay in cooling after 20 seconds with some; also recorded: upfront bitterness coming from PG. Very intense; also recorded: building cooling post 50 seconds”. For the same molecule, the “Iext” value with trained panelists [3] is recorded as 2.33^b. Further, in the experiment on trained panelists [3] (setting [4]), the AUC is reported as 5565.00^b, the I max is given as 13.37^ab, the Rdec is listed as −0.01^b and the Rinc is 0.03^b. In addition, in the experiment on trained panelists [3] (setting [4]), the Tmax is recorded as 32.73^a and the Tstart is 30.00^a. In the experiment with trained panelists [3] (setting [5]), the AUC is reported as 180.91^a, the Imax is on record as 13.09^a, the Rdec is 0.00^b and the Rinc is recorded as 0.23^a. Besides, the Tstart in the experiment on trained panelists [3] (setting [5]) was 10.00^a.

The values above are taken from US20210093531A1, “DERIVATIVES OF MENTHOL AND USES THEREOF” (Board of Trustees of Northern Illinois University, priority 2019, published 2021).
